Source: patent US20190381171A1, “CO-USE OF ANTI-BCMA ANTIBODY AND ANTIBODY-COUPLED T CELL RECEPTOR (ACTR) IN CANCER THERAPY AND B CELL DISORDERS” (UNUM THERAPEUTICS INC., priority 2017, published 2019)

Columns and labels:
[1] = tested on: RPMI-8226 target cells; assay: ACTR T-cell proliferation (live CD3+ T cell count, flow cytometry, 7 days); format: cell-based, human; conditions: ACTR variant SEQ ID NO: 1, E:T 1:1, hSG16.17 SEA 1 μg/mL, absence or presence of lenalidomide 1 μM, 7 day
Method: (§1) T-cells expressing ACTR variant SEQ ID NO: 1 (effector; E) and target cells (target; T) were incubated at a 1:1, effector-to-target ratio (30,000 T cells; 30,000 target cells) with increasing concentrations of humanized afucosylated (SEA) BCMA antibody in a 200-μL reaction volume in RPMI 1640 media supplemented with 10% fetal bovine serum and 25 U/mL IL2. Reactions were incubated in a CO2 (5%) incubator at 37 degrees C. for 7 days. The number of live CD3+ T-cells were determined at day 1 and day 7 and compared to the input number of T-cells (dotted line). Briefly, at day 1 and day 7, cells were washed twice in staining buffer before being stained with a Live/Dead eFluor-780 dye for 30 min at 4 degrees C. […] After staining, cells were washed twice again with staining buffer and staining was subsequently detected via flow cytometry. […]
Mock or ACTR T cells (effector; E) and target cells (target; T) were incubated at a 1:1, effector-to-target cell ratio in the presence and absence of the anti-BCMA antibody, hSG16.17 SEA (1 μg/mL). […] The total CD3+ T cell count was determined by flow cytometry after a 7 day incubation in a CO2 (5%) incubator. […] After staining, cells were washed twice with staining buffer and detected via flow cytometry. […]

[2] = tested on: NCI-H929 target cells; assay: as above; format: cell-based, human; conditions: ACTR variant SEQ ID NO: 1, E:T 1:1, hSG16.17 SEA 1 μg/mL, absence or presence of lenalidomide 1 μM, 7 day
Method: as §1
Mock T cells or ACTR T cells (effector; E) and target cells (target; T) were incubated at a 1:1, effector-to-target cell ratio (30,000 target cells) with increasing concentration of humanized afucosylated anti-BCMA antibody (hSG16.17SEA) in a 200-μL reaction volume in RPMI 1640 media supplemented with 10% fetal bovine serum. […] The counts of live CD3+ T cells were determined at day 7. […] After staining, cells were washed twice again with staining buffer and staining was subsequently detected via flow cytometry. […]

Nc1cccc2c1CN(C1CCC(=O)NC1=O)C2=O (centres unmarked) [Lenalidomide, lenalidomide, reference compound]
CD3+ T cell count [1]: further enhanced the proliferation
CD3+ T cell count [2]: further enhanced the proliferation
